The source of these data is patent publication US20120284812A1, “Herbicide-Tolerant Plants” (BASF AGROCHEMICAL PRODUCTS, B.V., priority 2009, published 2012).

One assay concerns rice plants. Description: Greenhouse spray test of regenerants, rated for herbicide injury. In kind it is in vivo, Oryza sativa. As to conditions: 400-1600 g ai/ha, 0.1% methylated seed oil, 1 and 2 weeks after treatment. As for the experimental part:
Selected mutants and escapes were transferred to small pots. Wild-type cultivars and 3 biovars of red rice were germinated from seed to serve as controls.
After ca. 3 weeks post-transplant, MO regenerants were sprayed using a track sprayer with 400-1600 g ai/ha cycloxydim (BAS 517H) supplemented with 0.1% methylated seed oil. After the plants had adapted to greenhouse conditions, a subset were sprayed with 800 g ai/ha cycloxydim. Once sprayed, plants were kept on drought conditions for 24 hours before being watered and fertilized again. Sprayed plants were photographed and rated for herbicide injury at 1 (FIG. 3) and 2 weeks after treatment (FIG. 4). […] FIGS. 5-15 provide nucleic acid and/or amino acid sequences of acetyl-Coenzyme A carboxylase enzymes from various plants. FIG. 17 provides a graph showing results for mutant rice versus various ACCase inhibitors.

Assay [1] concerns ACCase-inhibitor tolerant rice plants. Nature of the assay: Field treatment of ACCase-inhibitor tolerant rice plants. The settings on record: 600 g/ha treatment, data not shown. In kind it is in vivo.
A further assay relates to rice calli. Nature of the assay: Kill curves: tissue survival of rice calli on herbicide media. In kind it is cell-based, Oryza sativa. As to conditions: determined by kill curves and observations of continued culture. As for the experimental part: Once tissue culture conditions were determined, further establishment of selection conditions were established through the analysis of tissue survival in kill curves with cycloxydim, tepraloxydim, sethoxydim (FIG. 1) or haloxyfop (not shown). Careful consideration of accumulation of the herbicide in the tissue, as well as its persistence and stability in the cells and the culture media was performed. Through these experiments, a sub-lethal dose has been established for the initial selection of mutated material.
After the establishment of the starting dose of sethoxydim, cycloxydim, tepraloxydim, and haloxyfop in selection media, the tissues were selected in a step-wise fashion by increasing the concentration of the ACCase inhibitor with each transfer until cells are recovered that grew vigorously in the presence of toxic doses (see FIG. 2). The resulting calli were further subcultured every 3-4 weeks to R001M with selective agent. Over 26,000 calli were subjected to selection for 4-5 subcultures until the selective pressure was above toxic levels as determined by kill curves and observations of continued culture. Toxic levels were determined to be 50 μM sethoxydim, 20 μM cycloxydim, 2.5 μM tepraloxydim (FIG. 1) and 10 μM haloxyfop (not shown).

Take `CCCC(=NOCC)C1=C(O)CC(C2CCCSC2)CC1=O` (stereo not shown) [cycloxydim]: the herbicide injury entry in the assay on rice plants (control plants and tissue culture escapes) is recorded as “heavily damaged”; with rice plants (plants containing the I1,781 (Am)L heterozygous mutation), “No injury”. For the same molecule, the “herbicide tolerance phenotypes in the field” value in assay [1] was “exhibited”. Moreover, the Toxic levels in the assay with rice calli was found to be 20 µM. Consider `CC(Oc1ccc(Oc2ncc(C(F)(F)F)cc2Cl)cc1)C(=O)O` (stereo not shown) [haloxyfop], for which the Toxic levels in the assay with rice calli is 10 µM. In the assay on rice calli, `CC/C(=N\OC/C=C/Cl)C1=C(O)CC(C2CCOCC2)CC1=O` (stereo not shown) [tepraloxydim] displayed a Toxic levels of 2.5 µM. On the same count and under the same terms, for `CCC/C(=N\OCC)C1=C(O)CC(CC(C)SCC)CC1=O` (stereo not shown) [sethoxydim] the value was 50 µM.
